In PubChem BioAssay (NCI) one finds TGI and GI50 data, which are given here for 14 compounds.

Among the test systems are CCRF-CEM leukemia; DU-145 prostate; SNB-75 CNS; UACC-257 melanoma; LOX IMVI melanoma; U251 CNS; SNB-19 CNS; OVCAR-4 ovarian; OVCAR-5 ovarian; MALME-3M melanoma.
What all share (test): inhibition of tumour cell growth, NCI panel, 48 h

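All cell lines were grown in 96-well plates and treated with compound for 48 hours. GI50 is the concentration that inhibits growth by half. The concentration for full growth arrest is given as TGI.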

With `CCOC(=O)[C@@H]1ON2OC(OC3CCCC3(c3ccccc3)c3ccccc3)C(OC(C)=O)[C@H]3OC(=O)[C@@H]1C32` (some centres not stated), the TGI in the assay with CCRF-CEM leukemia was over 100 µM; in the assay with DU-145 prostate, over 100 µM; in the assay on SNB-75 CNS, over 100 µM; in the assay on UACC-257 melanoma, over 100 µM; in the assay on LOX IMVI melanoma it was 60.3 µM; with U251 CNS, over 100 µM. In the assay on SNB-19 CNS, this compound had a TGI of over 100 µM.

Turning to `CSc1scc2c1/C(=N/NC(N)=O)CCC2`, the TGI in the assay with OVCAR-4 ovarian, with CCRF-CEM leukemia, with DU-145 prostate, in the assay on SNB-75 CNS, with OVCAR-5 ovarian and with UACC-257 melanoma was over 100 µM each time. Further, the TGI in the assay on LOX IMVI melanoma, with U251 CNS and in the assay with SNB-19 CNS was over 100 µM throughout.

For `COc1cc(CS(=O)c2ccc(O)cc2)cc(OC)c1OC` (configuration not stated), the TGI in the assay on CCRF-CEM leukemia, in the assay with DU-145 prostate, in the assay on SNB-75 CNS, with OVCAR-5 ovarian, in the assay on UACC-257 melanoma and in the assay with MALME-3M melanoma was over 100 µM throughout. For the same compound, the TGI with LOX IMVI melanoma, in the assay with U251 CNS and in the assay with SNB-19 CNS was over 100 µM each time.

For `CC(C)(C)[Si](C)(C)OCC1OC(n2cnc3c(=O)[nH]c(N)nc32)C(O[Si](C)(C)C(C)(C)C)C1O[Si](C)(C)C(C)(C)C` (configuration not stated), the TGI with OVCAR-4 ovarian was found to be 3.65 µM; in the assay on DU-145 prostate it was 12.2 µM; with SNB-75 CNS, 9.57 µM; in the assay on OVCAR-5 ovarian, 5.79 µM; in the assay on UACC-257 melanoma, 9.4 µM; in the assay with MALME-3M melanoma, 4.02 µM. Moreover, the TGI with LOX IMVI melanoma was over 19.7 µM; in the assay with U251 CNS, 3.71 µM; in the assay with SNB-19 CNS, 6.14 µM.

As to `O=C1CC2CCC(C1)S2=O` (configuration not stated), the TGI with OVCAR-4 ovarian, with CCRF-CEM leukemia, with DU-145 prostate, in the assay on SNB-75 CNS, in the assay on UACC-257 melanoma and with MALME-3M melanoma was over 100 µM each time. Besides, the TGI in the assay on LOX IMVI melanoma, in the assay on U251 CNS and in the assay on SNB-19 CNS was over 100 µM in each case.

With `C=C1CN(C2=NCCO2)C1`, the TGI with OVCAR-4 ovarian, with CCRF-CEM leukemia, in the assay on DU-145 prostate, in the assay on SNB-75 CNS, with OVCAR-5 ovarian and in the assay with UACC-257 melanoma was over 100 µM throughout. Further, the TGI in the assay on MALME-3M melanoma, in the assay on LOX IMVI melanoma and in the assay with SNB-19 CNS was over 100 µM throughout.

For `CC1=NN(c2nc(N)nc(CF)n2)C(C)(C)C1`, the TGI with OVCAR-4 ovarian, with CCRF-CEM leukemia, in the assay with DU-145 prostate, in the assay with SNB-75 CNS, in the assay on UACC-257 melanoma and in the assay on LOX IMVI melanoma was over 100 µM in each case. The TGI in the assay with U251 CNS and in the assay with SNB-19 CNS was over 100 µM in each case.

For `CC(=O)/C(=C/N1CCNC1=S)C(=O)Nc1ccccc1C`, the TGI in the assay with OVCAR-4 ovarian, in the assay with CCRF-CEM leukemia, in the assay on DU-145 prostate, in the assay on SNB-75 CNS, in the assay on OVCAR-5 ovarian and in the assay with UACC-257 melanoma was over 100 µM throughout. Besides, the TGI in the assay with LOX IMVI melanoma, with U251 CNS and in the assay on SNB-19 CNS was over 100 µM in each case.

In the case of `C=CC(C)(C)C(=C)C(=O)Nc1ccccc1I`, the TGI with OVCAR-4 ovarian, in the assay with CCRF-CEM leukemia, with DU-145 prostate, in the assay on SNB-75 CNS, in the assay on OVCAR-5 ovarian and with UACC-257 melanoma was over 100 µM throughout. Moreover, the TGI in the assay on LOX IMVI melanoma, with U251 CNS and in the assay on SNB-19 CNS was over 100 µM in each case.

Regarding `CCC[C@@H]1C(=O)N=C(N)N1C(=O)OCc1ccccc1`, the TGI with OVCAR-4 ovarian, with DU-145 prostate, in the assay on SNB-75 CNS, in the assay on OVCAR-5 ovarian, in the assay on UACC-257 melanoma and in the assay with MALME-3M melanoma was over 100 µM throughout. The TGI in the assay with LOX IMVI melanoma, with U251 CNS and with SNB-19 CNS was over 100 µM in each case.

On to `NC(N)=NCCCC(NC(=O)OCCCCn1ccc(N)nc1=O)C(=O)O` (configuration not stated), for which the TGI in the assay with OVCAR-4 ovarian, in the assay with CCRF-CEM leukemia, with DU-145 prostate, in the assay on SNB-75 CNS, with OVCAR-5 ovarian and in the assay with UACC-257 melanoma was over 100 µM each time. Also, the TGI with LOX IMVI melanoma, with U251 CNS and in the assay on SNB-19 CNS was over 100 µM in each case.

As to `COc1ccc(-c2nn(-c3ccc(NC(=O)Nc4ccc(Cl)c(C(F)(F)F)c4)cc3)cc2-c2ccncc2)cc1Cl`, the GI50 is 1.98 µM in the assay on OVCAR-4 ovarian; 1.4 µM in the assay on CCRF-CEM leukemia; 3.07 µM in the assay with DU-145 prostate; 1.36 µM in the assay with SNB-75 CNS; 1.88 µM in the assay with OVCAR-5 ovarian; 1.94 µM in the assay with UACC-257 melanoma. In addition, the GI50 in the assay on MALME-3M melanoma was 1.59 µM; with U251 CNS it was 0.928 µM; with SNB-19 CNS it was 2.35 µM. Moreover, the TGI with OVCAR-4 ovarian amounted to 21.9 µM; in the assay with CCRF-CEM leukemia it was 6.65 µM; in the assay with DU-145 prostate, 20.6 µM; in the assay with SNB-75 CNS, 7.86 µM; in the assay on OVCAR-5 ovarian, 5.96 µM; with UACC-257 melanoma it was 4.91 µM. Also, the figures for the TGI in the assay with MALME-3M melanoma, in the assay on U251 CNS and with SNB-19 CNS were 5.09 µM, 2.59 µM and 11 µM, respectively.

For the compound `C=C(c1ccccc1)c1ccccc1-c1cc(-c2ccccc2)cc(-c2ccccc2)n1`, the TGI in the assay with CCRF-CEM leukemia, in the assay on DU-145 prostate, with SNB-75 CNS, in the assay with OVCAR-5 ovarian, in the assay on UACC-257 melanoma and in the assay on MALME-3M melanoma was over 100 µM each time. The TGI with LOX IMVI melanoma, in the assay on U251 CNS and in the assay on SNB-19 CNS was over 100 µM throughout.

`COC(=O)c1c(O)ccc2c1c1c(n2Cc2ccccc2)C(=O)c2ccccc2C1`: the TGI with OVCAR-4 ovarian was 70.4 µM; with CCRF-CEM leukemia, 65.8 µM; in the assay on DU-145 prostate, over 100 µM; in the assay on SNB-75 CNS, 70.2 µM; with UACC-257 melanoma it was over 100 µM; with MALME-3M melanoma it was over 100 µM. Moreover, the TGI in the assay on LOX IMVI melanoma was 69.5 µM; with U251 CNS, over 100 µM; in the assay on SNB-19 CNS it was over 100 µM.
